Experimental data published in PMC5908134, “Saccharomyces cerevisiae as a platform for assessing sphingolipid lipid kinase inhibitors” (PLoS ONE, 2018).
“Also recorded” adds a separate entry of the source.

Assays:
human SphK1 [1] = biological target: T1, human SphK1 (Homo sapiens, UniProt Q9NYA1); assay: yeast growth rescue assay, strain CBY169 expressing human SphK1; type: cell-based; details: strain CBY169 expressing human SphK1
T1 construct: constructed by sub-cloning DNA encoding the indicated translational open reading frames into the pYES2-FLAG-URA expression vector; expressed in transfected cells; host or cells: Saccharomyces cerevisiae CBY169 or KYA1, plasmid pGAL-HsSPHK1
Description: (§1) The plasmids pGAL-HsSPHK1, pGAL-HsSPHK2, pGAL-MmSphk1, pGAL-MmSphk1L277M, pGAL-MmSphk2, pGAL-HsCERK and pGAL-SK2_MOD used in this study were constructed by sub-cloning DNA encoding the indicated translational open reading frames into the pYES2-FLAG-URA expression vector (provided by Dr. Cungui Mao). […] Excepting human and mouse SphK2, the DNA sequences are synthetic (from GeneWiz LLC (South Plainfield, NJ)) and were optimized for expression in S. cerevisiae.
(§2) Yeast harboring plasmids were selected and maintained on synthetic complete media lacking uracil (SC-URA) with 2% glucose as the fermentable carbon source. After overnight growth at 30°C in this media, the cultures were diluted 1:100 into SC-URA media supplemented with 2% galactose and various concentrations of test inhibitor. After a further 24–48 hours incubation at 30°C, the extent of growth was assessed by measuring absorbance at 600 nm. […] Tubes were incubated in a rotating drum while plates were agitated using a plate mixer. A600 for 96-well plate cultures was determined using a Molecular Devices SpectraMax M5 plate reader. Test compounds were dissolved in DMSO at 40–50 mM and diluted into water containing 0.1% fatty acid free bovine serum albumin. In all cases, the DMSO concentration in the assay was less than 2% (v/v).

human SphK2 [2] = biological target: T2, human SphK2 (Homo sapiens, UniProt Q9NRA0); assay: yeast growth rescue assay, strain KYA1 (PDR5 deleted) expressing human SphK2; type: cell-based; details: strain KYA1 expressing human SphK2
T2 construct: full length (wild type hSK2); expressed in transfected cells; host or cells: Saccharomyces cerevisiae CBY169 or KYA1, plasmid pGAL-HsSPHK2
T2 sequence (Q9NRA0 1-618 isoform Q9NRA0-2): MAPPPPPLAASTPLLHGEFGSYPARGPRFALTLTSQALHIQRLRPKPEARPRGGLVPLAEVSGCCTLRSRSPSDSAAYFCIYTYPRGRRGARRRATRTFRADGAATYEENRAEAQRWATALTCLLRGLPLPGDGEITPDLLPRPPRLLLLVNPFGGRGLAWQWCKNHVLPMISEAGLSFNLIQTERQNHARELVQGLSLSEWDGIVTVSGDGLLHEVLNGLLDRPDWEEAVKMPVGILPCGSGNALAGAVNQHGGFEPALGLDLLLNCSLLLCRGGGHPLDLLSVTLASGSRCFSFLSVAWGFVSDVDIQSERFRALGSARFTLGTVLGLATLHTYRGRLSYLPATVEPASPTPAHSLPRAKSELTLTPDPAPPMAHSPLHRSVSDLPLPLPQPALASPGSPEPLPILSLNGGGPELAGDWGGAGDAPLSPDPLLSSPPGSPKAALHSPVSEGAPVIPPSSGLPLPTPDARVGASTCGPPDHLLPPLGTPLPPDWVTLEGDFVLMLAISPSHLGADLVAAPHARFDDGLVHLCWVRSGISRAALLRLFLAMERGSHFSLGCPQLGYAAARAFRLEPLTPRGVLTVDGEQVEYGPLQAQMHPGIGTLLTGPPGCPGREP
Description: The yeast strains used in this study include JS1256 (MATa his3Δ1 leu2Δ0 met15Δ0 ura3Δ0) and CBY169 (MATα leu2-3,112 ura3-52 his4 trp1 rme1 dpl1Δ::TRP1 lcb3Δ::LEU2 lcb4Δ::kanMX lcb5Δ::kanMX) (the latter provided by Kyle Cunningham). The CBY169 strain was modified further by replacement of the PDR5 gene with a selectable marker (confers resistance to clonat) to generate strain KYA1 (MATα leu2-3,112 ura3-52 his4 trp1 rme1 dpl1Δ::TRP1 lcb3Δ::LEU2 lcb4Δ::kanMX lcb5Δ::kanMX pdr5Δ::natMX).
The plasmids pGAL-HsSPHK1, pGAL-HsSPHK2, pGAL-MmSphk1, pGAL-MmSphk1L277M, pGAL-MmSphk2, pGAL-HsCERK and pGAL-SK2_MOD used in this study were constructed by sub-cloning DNA encoding the indicated translational open reading frames into the pYES2-FLAG-URA expression vector (provided by Dr. Cungui Mao). The encoded proteins all have an amino terminal FLAG epitope tag ([…]) and their expression is under the control of the GAL1,10 promoter. Excepting human and mouse SphK2, the DNA sequences are synthetic (from GeneWiz LLC (South Plainfield, NJ)) and were optimized for expression in S. cerevisiae.

mouse SphK2 = biological target: T3, mouse SphK2 (Mus musculus, UniProt Q9JIA7); assay: yeast growth rescue assay, mouse SphK2 (CBY169 and KYA1 strains); type: cell-based; details: both the CBY169 and KYA1 strains
T3 sequence (Q9JIA7 1-617): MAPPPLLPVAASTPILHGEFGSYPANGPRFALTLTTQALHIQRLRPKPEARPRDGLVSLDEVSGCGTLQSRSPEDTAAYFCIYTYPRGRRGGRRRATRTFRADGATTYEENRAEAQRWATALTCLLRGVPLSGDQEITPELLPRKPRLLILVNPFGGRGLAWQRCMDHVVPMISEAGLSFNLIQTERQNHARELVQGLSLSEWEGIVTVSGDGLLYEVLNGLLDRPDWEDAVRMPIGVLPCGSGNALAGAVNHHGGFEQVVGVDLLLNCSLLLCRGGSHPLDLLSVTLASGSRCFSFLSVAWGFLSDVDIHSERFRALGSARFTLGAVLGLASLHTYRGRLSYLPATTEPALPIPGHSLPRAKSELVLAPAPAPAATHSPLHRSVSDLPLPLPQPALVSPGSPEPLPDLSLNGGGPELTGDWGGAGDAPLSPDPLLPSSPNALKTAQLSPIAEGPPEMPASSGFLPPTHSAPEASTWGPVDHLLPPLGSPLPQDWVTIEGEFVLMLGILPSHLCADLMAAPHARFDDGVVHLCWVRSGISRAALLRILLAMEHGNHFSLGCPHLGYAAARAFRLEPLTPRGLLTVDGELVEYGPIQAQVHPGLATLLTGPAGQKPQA
Description: as §1, §2

human SphK1 [3] = biological target: T1, human SphK1; assay: yeast growth rescue assay, strain KYA1 (PDR5 deleted) expressing human SphK1; type: cell-based
Description: as §1, §2

yeast strain CBY169 = assay: toxicity for yeast (growth of strains without lipid kinase expression)
Experimental: as §2
The salient limitations of the yeast assay are those of any cell-based assay. Namely, the assay reports EC50 values rather than Km, Vmax or kcat values of inhibitors, test compounds must not be markedly cytotoxic at the concentrations tested and compounds must accumulate to some extent in the yeast. Cytotoxicity is readily discerned by testing compounds for an effect on growth of strains without lipid kinase expression.

human SphK2 [4] = biological target: T2, human SphK2; assay: yeast growth rescue assay, strain CBY169 expressing human SphK2; type: cell-based
Description: as §1

T1 sequence (Q9NYA1 whole entry): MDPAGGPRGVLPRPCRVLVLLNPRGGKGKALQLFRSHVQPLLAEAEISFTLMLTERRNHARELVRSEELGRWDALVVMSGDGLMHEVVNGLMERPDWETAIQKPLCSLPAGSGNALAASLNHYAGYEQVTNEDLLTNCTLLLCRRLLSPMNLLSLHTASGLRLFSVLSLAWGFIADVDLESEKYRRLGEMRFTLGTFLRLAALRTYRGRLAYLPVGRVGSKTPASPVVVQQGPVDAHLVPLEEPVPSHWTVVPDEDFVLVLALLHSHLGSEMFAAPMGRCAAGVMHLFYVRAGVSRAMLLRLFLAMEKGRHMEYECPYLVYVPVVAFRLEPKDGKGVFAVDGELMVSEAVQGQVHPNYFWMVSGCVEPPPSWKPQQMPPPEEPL

Structure (SMILES): O=C(NCc1ccncc1)C12CC3CC(C1)CC(c1ccc(Cl)cc1)(C3)C2 [ABC294640]
- rescue of growth in galactose media (human SphK1 [1]): failed to rescue growth
- rescue of growth (human SphK2 [2]): failed to rescue growth; also recorded: failure to detect activity
- rescue of growth (human SphK2 [2]; concentrations up to 100 μM): failed to rescue growth
- activity (rescue of growth) (mouse SphK2): failure to detect activity
- rescue of growth (human SphK1 [3]): failed to rescue growth
- cytotoxicity for yeast (yeast strain CBY169): not cytotoxic
- rescue of growth (human SphK2 [4]): failed to rescue growth; also recorded: failure to detect activity
